Measured values: PubChem BioAssay (NCI)
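These data come from cells grown in 96-well plates and exposed to compound for 48 hours at five concentrations. The concentration for full growth arrest is given as TGI.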

Tests used:
Assay in all cases: NCI anticancer screen, dose series, 48 h
[1] = system: IGROV1 ovarian
[2] = system: RXF 393 renal
[3] = system: DU-145 prostate
[4] = system: OVCAR-8 ovarian
[5] = system: UO-31 renal
[6] = system: KM12 colon
[7] = system: MALME-3M melanoma
[8] = system: LOX IMVI melanoma
[9] = system: 786-0 renal
[10] = system: HCC-2998 colon
[11] = system: NCI-H522 lung
[12] = system: U251 CNS
[13] = system: SN12C renal
[14] = system: SR leukemia

Row | Structure (SMILES) | TGI [1] [µM] | TGI [2] [µM] | TGI [3] [µM] | TGI [4] [µM] | TGI [5] [µM] | TGI [6] [µM] | TGI [7] [µM] | TGI [8] [µM] | TGI [9] [µM] | TGI [10] [µM] | TGI [11] [µM] | TGI [12] [µM] | TGI [13] [µM] | TGI [14] [µM]
1 | COc1cc(/C=C2\C[C@H]3[C@@H]4CC=C5C[C@@H](O)CC[C@]5(C)[C@H]4CC[C@]3(C)C2=O)cc(OC)c1OC | > 100 | 58 | > 100 | > 100 | > 100 | > 100 | > 100 | 53.8 | 89.5 | 98.1 | 67.8 | > 100 | > 100 | 
2 | CC(=O)OCC1OC(Nc2ncc(-c3ccc(C)cc3)s2)C(OC(C)=O)C(OC(C)=O)C1OC(C)=O (centres undefined) | > 100 | > 100 |  | > 100 | 41 | > 94.1 | > 100 | > 68.3 |  | > 62.9 | > 100 | > 100 | 62.2 | 
3 | C/C(=C1/CCCC2(N=NCC2c2ccccc2)C1=O)c1ccccc1 (centres undefined) | > 100 | 79.5 |  | 64.2 | > 100 | 31.3 | 59.7 | > 100 | > 100 | > 100 | 59.6 | 72 | > 100 | 51.2
4 | CNC(=S)N/N=C(C)\C(=N/NC(=S)NC)c1ccccc1 | > 100 | > 100 | > 100 |  | > 100 | > 100 | > 100 | > 100 | > 100 | > 100 | > 100 |  |  | 
5 | COc1ccc2c3c1O[C@H]1C(O)CCC4(O)[C@@H](C2)NCC[C@]314 (some centres undefined) | > 100 |  | > 100 | > 100 | > 100 | > 100 | > 100 | > 100 | > 100 |  | > 100 | > 100 | > 100 | > 100
6 | Cc1ccc(C2CC(c3ccco3)=NN2c2ccccc2)o1 (centres undefined) | > 100 | > 100 |  | > 100 | > 100 | > 100 | > 100 | > 100 | > 100 |  | > 100 | > 100 | > 100 | > 100
7 | CCOC(=O)C(N=Nc1ccc(S(N)(=O)=O)cc1)C(C)=O (centres undefined) | > 100 | > 100 |  | > 100 | > 100 | > 100 | > 100 | > 100 | > 100 | > 100 | > 100 | > 100 | > 100 | > 100
8 | CC(=O)c1csc2c1C(=O)c1scc(C(C)=O)c1C2=O | 3.08 | 3.9 | 3.34 | 3.09 | 3.61 | 3.53 | 2.95 | 2.9 | 4.12 |  | 1.75 | 2.9 | 3.28 | 
9 | CCN1CCN(c2ccc(Nc3ccnc4ccc5nn(C)nc5c34)cc2)CC1 | 39.5 | 22.5 |  | 25.3 | 26.7 | 24 | 30.8 | 20.1 | 22.6 | 26 | 23.6 | 27 | 42.3 | > 100
